Results from US9795566B2, “Imidazole compound and liposome containing same” (FUJIFILM Corporation, priority 2014, dated 2017).

Assay: Stability of the compounds and of the liposomes (statement in words)
Format: physicochemical
Settings: compound itself

| stability of the compound | Compound |
| --- | --- |
| very stable | CCCCCCCCCCCCCCCCN(CCCCCCCCCCCCCCCC)CCOCCOC(=O)C(N)Cc1cnc[nH]1 (centres unmarked) [Example 1] |
| very stable | CCCCCCCCCCCCCCCCN(CCCCCCCCCCCCCCCC)C(=O)COCCOCCOCCNC(=O)C(N)Cc1cnc[nH]1 (centres unmarked) [Example 3] |
